Data as given in ChEMBL document CHEMBL1201862, “PubChem BioAssay data set” (2004).
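1) Cells in 96-well plates. 2) Compound, 48 h, 5 concentrations. 3) Linear interpolation between surrounding doses. 4) Unreached endpoint = highest concentration. GI50 = concentration required for 50% inhibition of growth.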 The source made the active and inactive calls. Rule as the data show it: active = GI50 up to about 1.1 µM and inactive = higher.

Assays:
Experiment in all cases: inhibition of tumour cell growth, NCI panel, 48 h
786-0 = tested on: 786-0
A498 = tested on: A498
A549 = tested on: A549
ACHN = tested on: ACHN
CAKI-1 = tested on: CAKI-1
CCRF-CEM = tested on: CCRF-CEM
COLO 205 = tested on: COLO 205
DLD-1 = tested on: DLD-1
DMS-114 = tested on: DMS-114
DMS-273 = tested on: DMS-273
EKVX = tested on: EKVX
HCC 2998 = tested on: HCC 2998
HCT-116 = tested on: HCT-116
HCT-15 = tested on: HCT-15
HL-60 = tested on: HL-60
HOP-62 = tested on: HOP-62
HT-29 = tested on: HT-29
IGROV-1 = tested on: IGROV-1
K562 = tested on: K562
KM-20L2 = tested on: KM-20L2
KM12 = tested on: KM12
LOX IMVI = tested on: LOX IMVI
LXFL 529 = tested on: LXFL 529
M14 = tested on: M14
M19-MEL = tested on: M19-MEL
MOLT-4 = tested on: MOLT-4
Malme-3M = tested on: Malme-3M
NCI-H226 = tested on: NCI-H226
NCI-H23 = tested on: NCI-H23
NCI-H460 = tested on: NCI-H460
NCI-H522 = tested on: NCI-H522
OVCAR-3 = tested on: OVCAR-3
OVCAR-4 = tested on: OVCAR-4
OVCAR-8 = tested on: OVCAR-8
RPMI-8226 = tested on: RPMI-8226
RXF 393 = tested on: RXF 393
RXF 631 = tested on: RXF 631
SF-268 = tested on: SF-268
SF-295 = tested on: SF-295
SF-539 = tested on: SF-539
SK-MEL-2 = tested on: SK-MEL-2
SK-MEL-5 = tested on: SK-MEL-5
SN12C = tested on: SN12C
SNB-19 = tested on: SNB-19
SNB-75 = tested on: SNB-75
SR = tested on: SR
SW-620 = tested on: SW-620
TK-10 = tested on: TK-10
U-251 = tested on: U-251
UACC-257 = tested on: UACC-257
UACC-62 = tested on: UACC-62
UO-31 = tested on: UO-31
HOP-18 = tested on: HOP-18
HOP-92 = tested on: HOP-92
OVCAR-5 = tested on: OVCAR-5
SK-MEL-28 = tested on: SK-MEL-28
SK-OV-3 = tested on: SK-OV-3
SNB-78 = tested on: SNB-78
XF498 = tested on: XF498

`CS(=O)(=O)NNS(=O)(=O)c1ccc(F)cc1` was tested, and the GI50 (786-0) was > 100 µM (inactive), the GI50 (A498) was > 100 µM (inactive) and the GI50 (A549) was > 100 µM (inactive). The GI50 (ACHN) was > 100 µM (inactive), the GI50 (CAKI-1) was > 100 µM (inactive) and the GI50 (CCRF-CEM) was > 100 µM (inactive). The GI50 (COLO 205) was > 100 µM (inactive), the GI50 (DLD-1) was > 100 µM (inactive) and the GI50 (DMS-114) was > 100 µM (inactive). For the same molecule, the GI50 (DMS-273) was > 100 µM (inactive), the GI50 (EKVX) was > 100 µM (inactive) and the GI50 (HCC 2998) was > 100 µM (inactive). For the same molecule, the GI50 (HCT-116) was > 100 µM (inactive), the GI50 (HCT-15) was > 100 µM and the GI50 (HL-60) was > 100 µM (inactive). The GI50 (HOP-62) was > 100 µM (inactive), the GI50 (HT-29) was > 100 µM (inactive) and the GI50 (IGROV-1) was > 100 µM (inactive). The GI50 (K562) was > 100 µM (inactive), the GI50 (KM-20L2) was > 100 µM (inactive) and the GI50 (KM12) was > 100 µM (inactive). For the same molecule, the GI50 (LOX IMVI) was > 100 µM (inactive), the GI50 (LXFL 529) was > 100 µM (inactive) and the GI50 (M14) was > 100 µM (inactive). For the same molecule, the GI50 (M19-MEL) was > 100 µM (inactive), the GI50 (MOLT-4) was > 100 µM (inactive) and the GI50 (Malme-3M) was > 100 µM (inactive). The GI50 (NCI-H226) was > 100 µM (inactive), the GI50 (NCI-H23) was > 100 µM (inactive) and the GI50 (NCI-H460) was > 100 µM (inactive). The GI50 (NCI-H522) was > 100 µM (inactive), the GI50 (OVCAR-3) was > 100 µM (inactive) and the GI50 (OVCAR-4) was > 100 µM (inactive). For the same molecule, the GI50 (OVCAR-8) was > 100 µM (inactive), the GI50 (RPMI-8226) was > 100 µM (inactive) and the GI50 (RXF 393) was > 100 µM (inactive). For the same molecule, the GI50 (RXF 631) was > 100 µM (inactive), the GI50 (SF-268) was > 100 µM (inactive) and the GI50 (SF-295) was > 100 µM (inactive). For the same molecule, the GI50 (SF-539) was > 100 µM (inactive), the GI50 (SK-MEL-2) was > 100 µM (inactive) and the GI50 (SK-MEL-5) was > 100 µM (inactive). For the same molecule, the GI50 (SN12C) was > 100 µM (inactive), the GI50 (SNB-19) was > 100 µM (inactive) and the GI50 (SNB-75) was > 100 µM (inactive). For the same molecule, the GI50 (SR) was > 100 µM (inactive), the GI50 (SW-620) was > 100 µM (inactive) and the GI50 (TK-10) was > 100 µM (inactive). The GI50 (U-251) was > 100 µM (inactive), the GI50 (UACC-257) was > 100 µM (inactive) and the GI50 (UACC-62) was > 100 µM (inactive). For the same molecule, the GI50 (UO-31) was > 100 µM (inactive).
For `COc1ccc2c(c1)[n+]([O-])c(-c1ccc(Cl)c(Cl)c1)c(N)[n+]2[O-]`, the GI50 (786-0) was 36.7 µM (inactive), the GI50 (A498) was 47.5 µM (inactive) and the GI50 (A549) was 30.3 µM (inactive). The GI50 (ACHN) was 42.6 µM (inactive), the GI50 (CAKI-1) was 37.9 µM (inactive) and the GI50 (COLO 205) was 19 µM (inactive). The GI50 (DLD-1) was 33.9 µM (inactive), the GI50 (DMS-114) was 16.3 µM (inactive) and the GI50 (DMS-273) was 23.8 µM (inactive). For the same molecule, the GI50 (EKVX) was 33.6 µM (inactive), the GI50 (HCT-116) was 42.9 µM (inactive) and the GI50 (HCT-15) was 33.3 µM. The GI50 (HL-60) was 23.7 µM (inactive), the GI50 (HOP-18) was 24.3 µM (inactive) and the GI50 (HOP-62) was 60.8 µM (inactive). The GI50 (HOP-92) was > 100 µM (inactive), the GI50 (HT-29) was 37.5 µM (inactive) and the GI50 (IGROV-1) was 27 µM (inactive). For the same molecule, the GI50 (K562) was 40.7 µM (inactive), the GI50 (KM-20L2) was 32.3 µM (inactive) and the GI50 (KM12) was 34.3 µM (inactive). For the same molecule, the GI50 (LXFL 529) was 35.6 µM (inactive), the GI50 (M14) was 25.7 µM (inactive) and the GI50 (M19-MEL) was 28.8 µM (inactive). The GI50 (MOLT-4) was 37.5 µM (inactive), the GI50 (Malme-3M) was 23.6 µM (inactive) and the GI50 (NCI-H226) was 45.1 µM (inactive). For the same molecule, the GI50 (NCI-H23) was 15.8 µM (inactive), the GI50 (NCI-H460) was 25.1 µM (inactive) and the GI50 (NCI-H522) was 14.3 µM (inactive). For the same molecule, the GI50 (OVCAR-3) was 26.1 µM (inactive), the GI50 (OVCAR-4) was 28.7 µM (inactive) and the GI50 (OVCAR-5) was 36.8 µM (inactive). The GI50 (OVCAR-8) was 34.9 µM (inactive), the GI50 (RPMI-8226) was 31.3 µM (inactive) and the GI50 (RXF 631) was 21.3 µM (inactive). The GI50 (SF-268) was 37.1 µM (inactive), the GI50 (SF-295) was 78.3 µM (inactive) and the GI50 (SF-539) was 23 µM (inactive). For the same molecule, the GI50 (SK-MEL-28) was 27 µM (inactive), the GI50 (SK-MEL-2) was 19.9 µM (inactive) and the GI50 (SK-MEL-5) was 16.5 µM (inactive). For the same molecule, the GI50 (SK-OV-3) was 55.1 µM (inactive), the GI50 (SN12C) was 46.1 µM (inactive) and the GI50 (SNB-19) was > 100 µM (inactive). The GI50 (SNB-75) was 44.7 µM (inactive), the GI50 (SNB-78) was 53.6 µM (inactive) and the GI50 (SR) was 45 µM (inactive). For the same molecule, the GI50 (SW-620) was 38.9 µM (inactive), the GI50 (U-251) was 35.1 µM (inactive) and the GI50 (UACC-257) was 16.4 µM (inactive). For the same molecule, the GI50 (UO-31) was 39.7 µM (inactive).
`COCCCCCC(=O)CP(=O)(OC)OC` was tested, and the GI50 (786-0) was > 100 µM (inactive), the GI50 (A498) was > 100 µM (inactive) and the GI50 (A549) was > 100 µM (inactive). For the same molecule, the GI50 (ACHN) was > 100 µM (inactive), the GI50 (CAKI-1) was > 100 µM (inactive) and the GI50 (CCRF-CEM) was > 100 µM (inactive). The GI50 (COLO 205) was > 100 µM (inactive), the GI50 (DLD-1) was > 100 µM (inactive) and the GI50 (DMS-114) was > 100 µM (inactive). The GI50 (DMS-273) was > 100 µM (inactive), the GI50 (EKVX) was > 100 µM (inactive) and the GI50 (HCC 2998) was > 100 µM (inactive). For the same molecule, the GI50 (HCT-116) was > 100 µM (inactive), the GI50 (HCT-15) was > 100 µM and the GI50 (HL-60) was 86.3 µM (inactive). For the same molecule, the GI50 (HOP-18) was > 100 µM (inactive), the GI50 (HOP-62) was > 100 µM (inactive) and the GI50 (HOP-92) was > 100 µM (inactive). For the same molecule, the GI50 (HT-29) was > 100 µM (inactive), the GI50 (IGROV-1) was > 100 µM (inactive) and the GI50 (K562) was > 100 µM (inactive). For the same molecule, the GI50 (KM-20L2) was > 100 µM (inactive), the GI50 (KM12) was > 100 µM (inactive) and the GI50 (LOX IMVI) was > 100 µM (inactive). The GI50 (LXFL 529) was > 100 µM (inactive), the GI50 (M14) was > 100 µM (inactive) and the GI50 (M19-MEL) was > 100 µM (inactive). The GI50 (MOLT-4) was > 100 µM (inactive), the GI50 (Malme-3M) was > 100 µM (inactive) and the GI50 (NCI-H226) was > 100 µM (inactive). For the same molecule, the GI50 (NCI-H23) was > 100 µM (inactive), the GI50 (NCI-H460) was > 100 µM (inactive) and the GI50 (NCI-H522) was > 100 µM (inactive). The GI50 (OVCAR-3) was > 100 µM (inactive), the GI50 (OVCAR-5) was > 100 µM (inactive) and the GI50 (OVCAR-8) was > 100 µM (inactive). The GI50 (RPMI-8226) was > 100 µM (inactive), the GI50 (RXF 393) was > 100 µM (inactive) and the GI50 (SF-268) was > 100 µM (inactive). For the same molecule, the GI50 (SF-295) was > 100 µM (inactive), the GI50 (SF-539) was > 100 µM (inactive) and the GI50 (SK-MEL-28) was > 100 µM (inactive). For the same molecule, the GI50 (SK-MEL-2) was > 100 µM (inactive), the GI50 (SK-MEL-5) was > 100 µM (inactive) and the GI50 (SK-OV-3) was > 100 µM (inactive). The GI50 (SN12C) was > 100 µM (inactive), the GI50 (SNB-19) was > 100 µM (inactive) and the GI50 (SNB-75) was > 100 µM (inactive). For the same molecule, the GI50 (SNB-78) was > 100 µM (inactive), the GI50 (SR) was 52 µM (inactive) and the GI50 (SW-620) was > 100 µM (inactive). For the same molecule, the GI50 (TK-10) was > 100 µM (inactive), the GI50 (U-251) was > 100 µM (inactive) and the GI50 (UACC-257) was > 100 µM (inactive). For the same molecule, the GI50 (UACC-62) was > 100 µM (inactive), the GI50 (UO-31) was > 100 µM (inactive) and the GI50 (XF498) was > 79.6 µM (inactive).
